Measurements published in patent US12624309B2, “Enol ether properfume” (Firmenich SA, priority 2020, dated 2026).

Assay: Acid-catalyzed hydrolysis of enol ethers in THF/1 M HCl, percent remaining by GC-FID
Assay type: physicochemical
Settings: for percent remaining, 24 h / percent remaining, 48 h / percent remaining, 72 h / percent remaining, 168 h / percent remaining, 336 h / percent remaining, 504 h / percent remaining, 672 h / percent remaining, initial / rate of hydrolysis / hydrolytic stability compared to corresponding enol ethers prepared from alkyl alcohols: THF/1M HCl (80:20 v/v); for percent remaining, 24 h / percent remaining, 48 h / percent remaining, 72 h / percent remaining, 168 h / percent remaining, 336 h / percent remaining, 504 h / percent remaining, 672 h / percent remaining, initial: room temperature; for percent remaining, initial: time zero; for enol ether remained after 504 h (21 days): Table 1, THF/1M HCl; for rate of hydrolysis / hydrolytic stability compared to corresponding enol ethers prepared from alkyl alcohols: in words
Description: Each enol ether was dissolved in a 4:1 THF/1 M HCl mixture and the percent remaining over time measured relative to an internal standard.
After mixing, 2 mL of this solution were removed with a volumetric pipet and used to obtain the time zero measurement. 2 mL of 1 M HCl were mixed with the remaining 8 mL of the THF solution. This mixture was divided into 5 mL vials (1 mL per vial). The vials were gently topped with nitrogen and fitted with screw caps around which parafilm was wrapped. The vials were stored at room temperature until analyzed. For analyses, 2 mL of ethyl acetate was added to a vial and mixed. After phase separation, the top phase was collected and washed with saturated sodium carbonate (1 mL). Samples of the organic phase were analyzed by GC-FID. For the time zero sample, 0.5 mL of deionized water was added to the 2 mL taken from the original THF solution. 1 mL of this solution was added to a 5 mL vial and diluted with 2 mL of ethyl acetate and mixed. The top phase was collected and washed with saturated sodium carbonate (1 mL). The top phase then was analyzed by GC-FID. The percent of enol ether remaining was determined by dividing the peak area ratio of the enol ether to internal standard by the ratio measured at time zero.

Row | Compound | percent remaining, 24 h [%] | percent remaining, 48 h [%] | percent remaining, 72 h [%] | percent remaining, 168 h [%] | percent remaining, 336 h [%] | percent remaining, 504 h [%] | percent remaining, 672 h [%] | percent remaining, initial [%] | enol ether remained after 504 h (21 days) [%] | rate of hydrolysis / hydrolytic stability compared to corresponding enol ethers prepared from alkyl alcohols
1 | COC(=O)C(C)(C)OC=C(C)c1ccc(OC)cc1 [Compound 27, methyl 2-((2-(4-methoxyphenyl)prop-1-en-1-yl)oxy)-2-methylpropanoate] | 102 | 101 | 99.7 | 97.8 | 87.7 | 89.1 | 84.7 | 100 | – | –
2 | CC(=COCCc1ccccc1)c1ccc(C)cc1 [1-methyl-4-(1-phenethoxyprop-1-en-2-yl)benzene, reference compound] | 97.8 | 95.5 | 93.9 | 85.0 | 70.4 | 57.3 | 42.5 | 100 | – | –
3 | CC(=COCCc1ccccc1)c1ccccc1 [(1-phenethoxyprop-1-en-2-yl)benzene, reference compound] | 98.4 | 96.5 | 93.8 | 86.1 | 72.7 | 59.0 | 43.7 | 100 | – | –
4 | CCCCCC(CC)OC=Cc1ccccc1 (centres unmarked) [(2-(octan-3-yloxy)vinyl)benzene, reference compound] | 84.9 | 72.0 | 61.7 | 33.6 | 10 | 4.5 | 0 | 100 | 4.5 | –
5 | COC(=O)C(C)(C)OC=Cc1ccccc1 [Compound 10, methyl 2-methyl-2-(styryloxy)propanoate] | 97.2 | 95.3 | 93.7 | 86.0 | 77 | 70.8 | 64.1 | 100 | – | –
6 | COC(=O)C(C)(C)OC=C(C)c1ccc(C)cc1 [Compound 28, (±)-methyl 2-methyl-2-((2-(p-tolyl)prop-1-en-1-yl)oxy)propanoatemethyl] | 99.3 | 98.5 | 98.5 | 96.2 | 92.1 | 89.7 | 85.8 | 100 | – | Slower rates of hydrolysis
7 | CC/C=C\CCOC(=O)C(C)OC=Cc1ccccc1 (racemic) [Compound 39, (±)-(Z)-hex-3-en-1-yl 2-(styryloxy)propanoate] | 96.3 | 95.3 | 90.7 | 79.6 | 67.3 | 53.0 | 41.2 | 100 | – | –
8 | C(=Cc1ccccc1)OCCc1ccccc1 [(2-phenethoxyvinyl)benzene, reference compound] | 94.6 | 90.0 | 83.7 | 66.4 | 45.2 | 35.9 | 25.0 | 100 | 39.5 | –
9 | CC(=COC(C)(C)CCCC(C)C)c1ccccc1 [(1-(2,6-dimethylheptan-2-yloxy)prop-1-en-2-yl)benzene, reference compound] | 92.9 | 85.7 | 80.5 | 60.3 | 41.7 | 28.1 | 17.9 | 100 | – | –
10 | CCCCCC(CC)OC=C(C)c1ccccc1 (centres unmarked) [(1-(octan-3-yloxy)prop-1-en-2-yl)benzene, reference compound] | 96.2 | 92.4 | 89.3 | 76.6 | 57.3 | 44.5 | 33.6 | 100 | – | –
11 | COC(=O)C(C)(C)OC=C(C)c1ccccc1 [Compound 25, methyl 2-methyl-2-((2 phenylprop-1-en-1-yl)oxy)propanoate] | – | – | 100 | 98.1 | 93.6 | 90.0 | 89.6 | 100 | – | improved hydrolytic stability
12 | CC(OC=Cc1ccccc1)C(=O)OCCc1ccccc1 (racemic) [Compound 40, (±)-phenethyl 2-(styryloxy)propanoate] | 97.3 | 95.0 | 91.8 | 78.5 | 59.0 | 53.0 | 41.4 | 100 | – | –

Second part, the molecule after the results:

Row | percent remaining, 24 h [%] | percent remaining, 48 h [%] | percent remaining, 72 h [%] | percent remaining, 168 h [%] | percent remaining, 336 h [%] | percent remaining, 504 h [%] | percent remaining, 672 h [%] | percent remaining, initial [%] | enol ether remained after 504 h (21 days) [%] | rate of hydrolysis / hydrolytic stability compared to corresponding enol ethers prepared from alkyl alcohols | Compound
13 | 89.1 | 80.2 | 72.4 | 52.5 | 29.1 | 14.6 | 10.1 | 100 | 14.6 | – | CC/C=C\CCOC=Cc1ccc(OC)cc1 [Compound 51, 1-(2-(((Z)-hex-3-en-1-yl)oxy)vinyl)-4-methoxybenzene, reference compound]
14 | 98.0 | 97.0 | 95.8 | 90.9 | 82.4 | 74.5 | 66.6 | 100 | – | Slower rates of hydrolysis | CCC(C)OC(=O)C(C)OC=C(C)c1ccc(C)cc1 (racemic) [Compound 46, (±)-sec-butyl 2-((2-(p-tolyl)prop-1-en-1-yl)oxy)propanoate]
15 | 99.3 | 99.5 | 98.9 | 96.5 | 93.3 | 90.4 | 88.6 | 100 | – | improved hydrolytic stability | CCCCCC(CC)OC(=O)C(C)OC=C(C)c1ccccc1 (racemic) [Compound 44, (±)-octan-3-yl 2-((2-phenylprop-1-en-1-yl)oxy)propanoate]
16 | 95.1 | 93.9 | 89.8 | 78.1 | 60.1 | 46.8 | 35.2 | 100 | 46.8 | – | CC/C=C\CCOC(=O)C(C)OC=Cc1ccc(OC)cc1 (racemic) [Compound 42, (±)-(Z)-hex-3-en-1-yl 2-((4-methoxystyryl)oxy)propanoate]
17 | 99.7 | 99.2 | 98.1 | 94.1 | 91.7 | 88.4 | 84.4 | 100 | – | – | CCCCCC(CC)OC(=O)C(C)OC=Cc1ccccc1 (racemic) [Compound 41, (±)-octan-3-yl 2-(styryloxy)propanoate]
18 | 96.6 | 94.4 | 91.2 | 81.6 | 65.0 | 51.1 | 40.0 | 100 | – | – | CC/C=C\CCOC(=O)C(C)OC=C(C)c1ccc(OC)cc1 (racemic) [Compound 47, (±)-(Z)-hex-3-en-1-yl 2-((2-(4-methoxyphenyl)prop-1-en-1-yl)oxy)propanoate]
19 | 96.8 | 94.8 | 93.8 | 87.6 | 76.9 | 67.6 | 56.2 | 100 | – | – | CCC(C)OC(=O)C(C)OC=C(C)c1ccc(OC)cc1 (racemic) [Compound 49, (±)-sec-butyl 2-((2-(4-methoxyphenyl)prop-1-en-1-yl)oxy)propanoate]
